The experiment has as its target 5-hydroxytryptamine receptor 4 (Rattus norvegicus, UniProt Q62758). Briefly: Displacement of [3H]GR113808 from 5-HT4 receptor in rat striatal membranes after 30 mins by liquid scintillation spectrometric analysis. The experiment is classed as cell membranes, Striatum, Membrane. (In general: In a radioligand displacement assay an active substance lowers the binding of a labelled ligand.)

Molecules are shown by their SMILES.

Usually Ki stands for the equilibrium dissociation constant of an inhibitor or competing ligand from its target.

Chain of 5-hydroxytryptamine receptor 4 (Q62758 whole entry): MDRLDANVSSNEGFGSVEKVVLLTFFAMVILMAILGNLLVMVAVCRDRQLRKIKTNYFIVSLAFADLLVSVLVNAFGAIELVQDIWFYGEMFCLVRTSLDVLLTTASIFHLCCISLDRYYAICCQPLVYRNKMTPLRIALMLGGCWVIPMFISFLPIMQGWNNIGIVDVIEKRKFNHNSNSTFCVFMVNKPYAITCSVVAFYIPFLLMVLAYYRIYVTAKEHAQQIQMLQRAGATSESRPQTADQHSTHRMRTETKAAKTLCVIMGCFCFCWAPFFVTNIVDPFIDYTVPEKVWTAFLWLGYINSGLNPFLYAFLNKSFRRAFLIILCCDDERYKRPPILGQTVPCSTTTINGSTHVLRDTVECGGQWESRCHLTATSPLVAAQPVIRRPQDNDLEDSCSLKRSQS

In turn, `CCCCN1CCC(CNC(=S)c2cc(Cl)cc3[nH]cnc23)CC1` returned an inhibition constant (Ki) of 0.081 nM.
The figure for `CCCCN1CCC(CNC(=S)c2cccc3[nH]cnc23)CC1` is 0.15 nM.

Source of the values: ChEMBL document CHEMBL3217537, “The importance of solvation in the design of ligands targeting membrane proteins” (Medchemcomm, 2011).
